EC50 data for 16 molecules are collected here from US8153635B2, “Compounds and compositions as modulators of GPR119 activity” (IRM LLC, priority 2007, dated 2012).

Molecules are shown by their SMILES.

The assay concerns the target T1, human GPR119 (Homo sapiens, UniProt Q8TDV5).
T1 construct: expressed in transfected cells; host or cells: Flp-In-CHO cells (Invitrogen, Cat.# R758-07), stably transfected with hGPR119 in pcDNA5/FRT plus pOG44
T1 sequence (Q8TDV5 1-335): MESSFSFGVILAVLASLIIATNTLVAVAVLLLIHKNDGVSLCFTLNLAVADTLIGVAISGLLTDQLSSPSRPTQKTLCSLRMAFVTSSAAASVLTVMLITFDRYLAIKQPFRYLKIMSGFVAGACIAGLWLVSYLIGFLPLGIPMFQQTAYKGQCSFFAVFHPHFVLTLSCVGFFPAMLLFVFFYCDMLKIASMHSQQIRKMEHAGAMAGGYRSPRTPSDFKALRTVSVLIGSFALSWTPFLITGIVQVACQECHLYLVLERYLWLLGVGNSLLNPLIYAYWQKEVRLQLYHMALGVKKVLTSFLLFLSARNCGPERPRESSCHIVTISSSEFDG
Put plainly: Cyclic AMP assay in CHO-hGPR119 cells (HTRF). To be noted: increase in intracellular cAMP; GPR119-transfected CHO cells. It is filed as cell-based. Here is the method:
Flp-In-CHO cells (Invitrogen, Cat.# R758-07) are maintained in Ham's F12 medium supplemented with 10% fetal bovine serum, 1% antibiotic mixture and 2 mM L-glutamine. The cells are transfected with a DNA mixture containing human GPR119 (hGPR119) or mouse GPR119 (mGPR119) in the pcDNA5/FRT vector (Invitrogen) and the pOG44 vector (Invitrogen) in a 1:9 ratio using Fugene6 (Roche), according to the manufacturer's instructions. After 48 hours, the medium is changed to medium supplemented with 400 μg/mL hygromycin B to initiate the selection of stably transfected cells. The resultant cell lines are designated CHO-hGPR119 and CHO-mGPR119 respectively.
To test the activity of compounds of the invention on human GPR119, CHO-hGPR119 cells are harvested and resuspended at 300,000 cells/mL in assay media (Ham's F12 medium plus 3% lipid-depleted fetal bovine serum, 1 mM 3-isobutyl-1-methyl-xanthine (IBMX)). Cells (5 μl) are placed in each well of a white 1536-well plate. A compound of the invention (50 nL) diluted in 100% dimethyl sulfoxide (DMSO) is added to each well and the plates are incubated at 37° C. for 30 minutes. cAMP concentrations are then measured using the cAMP dynamic 2 kit (Cisbio Bioassays) according to the manufacturer's instructions. 2.5 μL of diluted cAMP-XL665 is added to each well, followed by 2.5 μL diluted anti-cAMP-Cryptate. The plate is covered and incubated for one hour at room temperature, then read on an Envision plate reader (Perkin Elmer) using the HTRF method with excitation at 337 nm, and emissions measured at 620 nm and […].
For the molecule `CC(C)OC(=O)N1CCC(CCCOc2ccc(N3CCN(S(C)(=O)=O)CC3)cc2)CC1` [Example A3], the EC50 is greater than 800 nM.

`CC(C)OC(=O)N1CCC(COc2ccc(N3CCN(S(C)(=O)=O)CC3)nn2)CC1` [Example C2, Isopropyl 4-((6-(4-(methylsulfonyl)piperazin-1-yl)pyridazin-3-yloxy)methyl)piperidine-1-carboxylate]: the EC50 is greater than 800 nM.

Turning to `CCc1cnc(N2CCC(Oc3ccc4c5c(oc4c3)CN(S(C)(=O)=O)CC5)CC2)nc1` [Example V5, 7-(1-(5-Ethylpyrimidin-2-yl)piperidin-4-yloxy)-2-(methylsulfonyl)-1,2,3,4-tetrahydrobenzofuro[2,3-c]pyridine], the EC50 is less than 200 nM.

Molecule `CS(=O)(=O)N1CCC(c2ccc(OCC3CCN(c4ccc(Cl)cn4)CC3)cc2)CC1` [Example J22] displayed an EC50 of less than 200 nM. Under `CC1(OC(=O)N2CCC(COc3cnc(N4CCN(S(=O)(=O)[C@@H]5CCNC5)CC4=O)cn3)CC2)CC1` [Example O41] stands less than 200 nM; under `CC1(OC(=O)N2CCC(COc3cnc(N4CCC(S(C)(=O)=O)CC4)cn3)CC2)CC1` [Example G4, 1-Methylcyclopropyl 4-((5-(4-(methylsulfonyl)piperidin-1-yl)pyrazin-2-yloxy)methyl)piperidine-1-carboxylate], less than 200 nM. Under `CC1(OC(=O)N2CCC(COc3cnc(N4CC(NS(C)(=O)=O)C4)cn3)CC2)CC1` [Example U5, 1-Methylcyclopropyl 4-((5-(3-(methylsulfonamido)azetidin-1-yl)pyrazin-2-yloxy)methyl)piperidine-1-carboxylate] stands less than 200 nM. `CC1(OC(=O)N2CCC(COc3cnc(N4CCN(S(=O)(=O)CCCN5CCC5)CC4=O)cn3)CC2)CC1` [Example O9] gave a concentration for a half-maximal effect (EC50) of less than 200 nM. Turning to `CC(C)c1nc(N2CCC(COc3ccc(C4=CCN(S(C)(=O)=O)CC4)cc3)CC2)no1` [Example J7], the EC50 was less than 200 nM. Consider `CC(C)OC(=O)N1CCC(CCc2ccc(N3CCN(S(C)(=O)=O)CC3)nc2)CC1` [Example D2, Isopropyl 4-(2-(6-(4-(methylsulfonyl)piperazin-1-yl)pyridin-3-yl)ethyl)piperidine-1-carboxylate], for which the EC50 fell in the range of 200 to 800 nM. Under `CCc1cnc(N2CCC(CCCc3nc(N4CCN(S(C)(=O)=O)CC4)no3)CC2)nc1` [Example H3, 5-(3-(1-(5-Ethylpyrimidin-2-yl)piperidin-4-yl)propyl)-3-(4-(methylsulfonyl)piperazin-1-yl)-1,2,4-oxadiazole] stands less than 200 nM; under `CS(=O)(=O)N1CCC(C(=O)O)(c2ccc(OCC3CCN(c4ncc(F)cn4)CC3)cc2)CC1` [Example T1, 4-(4-((1-(5-fluoropyrimidin-2-yl)piperidin-4-yl)methoxy)phenyl)-1-(methylsulfonyl)piperidine-4-carboxylic acid], 200 to 800 nM; under `CC(C)c1noc(N2CCC(CCc3ncc(N4CCN(S(C)(=O)=O)CC4)s3)CC2)n1` [Example I1, 3-Isopropyl-5-(4-(2-(5-(4-(methylsulfonyl)piperazin-1-yl)thiazol-2-yl)ethyl)piperidin-1-yl)-1,2,4-oxadiazole], less than 200 nM. Under `CC1(OC(=O)N2CCC(COc3cnc(N4CCN(S(C)(=O)=O)CC4)cn3)CC2)CC1` [Example E3, 1-Methylcyclopropyl 4-((5-(4-(methylsulfonyl)piperazin-1-yl)pyrazin-2-yloxy)methyl)piperidine-1-carboxylate] stands less than 200 nM; under `CC(C)(C)OC(=O)N1CCC(COc2cnc(N3CCCN(S(C)(=O)=O)CC3)cn2)CC1` [Example G1, tert-Butyl 4-((5-(4-(methylsulfonyl)-1,4-diazepan-1-yl)pyrazin-2-yloxy)methyl)piperidine-1-carboxylate], greater than 800 nM; under `CC(C)c1noc(N2CCC(COc3ccc(N4CCN(S(C)(=O)=O)CC4)cn3)CC2)n1` [Example E9, 3-Isopropyl-5-(4-((5-(4-(methylsulfonyl)piperazin-1-yl)pyridin-2-yloxy)methyl)piperidin-1-yl)-1,2,4-oxadiazole], 200 to 800 nM.
